Data on ten molecules can be found in ChEMBL document CHEMBL1201862, “PubChem BioAssay data set” (2004).

Calls of active or inactive are those of the source. Where only a bound is given, the exact number is not on record here.

The test system of one assay is Escherichia coli. As to the kind of experiment: microbe, parasite or virus in culture.
In assay [1] the test system is BJ. As to the kind of experiment: cytotoxicity toward BJ-TERT fibroblasts, dose response, cell-based, RAS-independent, luminescence (AID 1933). As to conditions: Homo sapiens. Format: functional.
In assay [2] the test system is BJ. As to the kind of experiment: cells. Format: functional, cell-based. To be noted: Homo sapiens.
The subject of assay [3] is BJ. Kind of assay: cytotoxicity toward BJ-TERT-LT-ST fibroblasts, dose response, cell-based, RAS-independent, luminescence (AID 1935).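 Note: BJ fibroblasts immortalized with TERT plus LT and ST oncogenes.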 Format: functional. To be noted: Homo sapiens.
Assay [4] is described as follows: cytotoxicity toward DRD oncogenic fibroblasts, dose response, cell-based, non-viral oncogenic, luminescence (AID 1934). Format: functional. As to conditions: Homo sapiens.
For assay [5], the target named is T1, Ubiquitin-conjugating enzyme E2 N (Homo sapiens, UniProt P61088).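 Note: Dose-response confirmation in a TR-FRET assay detecting UBC13-driven polyubiquitin chain formation, inhibition measured.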
T1 sequence (P61088 whole entry): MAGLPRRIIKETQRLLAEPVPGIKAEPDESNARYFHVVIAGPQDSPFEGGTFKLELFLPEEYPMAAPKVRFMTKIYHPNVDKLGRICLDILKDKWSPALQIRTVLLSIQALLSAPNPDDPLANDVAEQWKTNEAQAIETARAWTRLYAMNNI
The format is functional.

The subject of assay [6] is BJ. Kind of assay: cytotoxicity toward Ras-transformed BJeLR fibroblasts, dose response, cell-based, alamar blue fluorescence, cherrypicked samples (AID 2631).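 Note: confirmatory dose-response assay in RAS-dependent BJ fibroblasts engineered with TERT, LT and ST, with cytotoxicity read by fluorescence.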 Format: functional. As to conditions: Homo sapiens.
For a further assay, the system named is INS1. Kind of assay: beta cell apoptosis inhibitors, cytokine rescue, dose response, luminescence, retest (AID 449756).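 Note: cell death triggered by IL-1 beta plus TNF-alpha plus IFN-gamma mixture; protective hits raise ATP signal compared with cytokine alone wells.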 Format: functional, cell-based. As to conditions: Rattus norvegicus.
Assay [7] has as its target T2, DNA repair protein RAD52 homolog (Homo sapiens, UniProt P43351).
T2 sequence (P43351 whole entry): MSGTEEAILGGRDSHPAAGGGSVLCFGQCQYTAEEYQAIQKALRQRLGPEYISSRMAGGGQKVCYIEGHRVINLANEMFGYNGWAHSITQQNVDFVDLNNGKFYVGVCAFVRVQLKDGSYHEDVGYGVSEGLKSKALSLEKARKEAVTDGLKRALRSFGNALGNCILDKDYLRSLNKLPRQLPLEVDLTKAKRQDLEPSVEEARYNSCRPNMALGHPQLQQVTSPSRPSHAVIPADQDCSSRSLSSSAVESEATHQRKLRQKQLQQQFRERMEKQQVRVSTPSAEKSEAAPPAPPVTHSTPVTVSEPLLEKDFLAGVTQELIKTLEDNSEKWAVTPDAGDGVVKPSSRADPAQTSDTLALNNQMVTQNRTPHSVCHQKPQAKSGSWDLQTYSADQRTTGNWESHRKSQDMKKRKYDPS
Format: functional, biochemical.

In the next assay the test system is Vero. As to the kind of experiment: Vero cell cytotoxicity, cytotoxicity control for flavivirus capping enzyme inhibitors (AID 588742). As to conditions: Chlorocebus sabaeus. Format: functional.
Assay [8] concerns the target Delta-type opioid receptor (Homo sapiens, UniProt P41143). Kind of assay: Counterscreen for agonists of heterodimerization of the mu 1 (OPRM1) and delta 1 (OPRD1) opioid receptors: Luminescence-based cell-based high throughput dose response assay to identify agonists of OPRD1 homodimerization. [Related pubchem assays (depositor defined):AID504326, AID504355, AID504692, AID504904, AID504905]. The format is functional.

For a further assay, the target named is Mu-type opioid receptor (Homo sapiens, UniProt P35372). As to the kind of experiment: Counterscreen for agonists of heterodimerization of the mu 1 (OPRM1) and delta 1 (OPRD1) opioid receptors: Luminescence-based cell-based high throughput dose response assay to identify agonists of OPRM1 homodimerization. The format is functional.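 Note: U2OS cells expressing OPRM1 and beta-arrestin as split beta-galactosidase partners.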
Assay [9] deals with 5-hydroxytryptamine receptor 5A (Homo sapiens, UniProt P47898). As to the kind of experiment: Counterscreen for agonists of OPRM1-OPRD1 heterodimerization: luminescence-based cell-based high throughput dose response assay to identify agonists of 5-hydroxytryptamine (serotonin) 5A receptor (HTR5A). [Related pubchem assays (depositor defined):AID504326, AID504355, AID504692, AID504904, AID504905]. Format: functional.

For assay [10], the target named is T3, RNA-binding protein pos-1 (Caenorhabditis elegans, UniProt G5EF15).
T3 sequence (G5EF15 whole entry): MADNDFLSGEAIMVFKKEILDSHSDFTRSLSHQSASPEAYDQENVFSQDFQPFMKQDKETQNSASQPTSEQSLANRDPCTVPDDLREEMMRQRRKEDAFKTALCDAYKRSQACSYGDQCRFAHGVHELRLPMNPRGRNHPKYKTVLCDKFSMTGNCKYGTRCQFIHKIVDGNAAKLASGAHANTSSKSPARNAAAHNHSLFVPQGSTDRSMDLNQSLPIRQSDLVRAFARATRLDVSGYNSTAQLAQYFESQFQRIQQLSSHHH
Kind of assay: inhibitors of POS-1/mex-3 RNA binding, dose response, biochemical, fluorescence polarization (AID 1964).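 Note: purified POS-1 fused to maltose binding protein made in E. coli; potency of compounds blocking POS-1 binding to fluorescent RNA.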

For assay [11], the target named is T4, Zinc finger protein mex-5 (Caenorhabditis elegans, UniProt Q9XUB2).
T4 sequence (Q9XUB2 whole entry): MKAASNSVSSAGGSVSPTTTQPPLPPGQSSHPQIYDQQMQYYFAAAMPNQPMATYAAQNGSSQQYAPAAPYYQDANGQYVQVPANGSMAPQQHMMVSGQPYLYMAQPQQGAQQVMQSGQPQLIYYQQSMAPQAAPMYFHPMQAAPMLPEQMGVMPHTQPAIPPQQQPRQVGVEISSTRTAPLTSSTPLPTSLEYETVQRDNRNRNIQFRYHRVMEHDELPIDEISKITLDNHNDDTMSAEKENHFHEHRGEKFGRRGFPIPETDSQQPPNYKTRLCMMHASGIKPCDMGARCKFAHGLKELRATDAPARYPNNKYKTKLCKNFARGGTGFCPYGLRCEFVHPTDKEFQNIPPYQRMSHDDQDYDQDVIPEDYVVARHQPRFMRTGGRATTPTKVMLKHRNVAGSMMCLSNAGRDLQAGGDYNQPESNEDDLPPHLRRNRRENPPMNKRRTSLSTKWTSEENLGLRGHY
As to the kind of experiment: MEX-5/TCR-2 RNA interaction inhibitors, dose response, biochemical, C. elegans, fluorescence polarization (AID 1960).

Assay [12] addresses T5, Endoribonuclease toxin MazF (Escherichia coli K-12, UniProt P0AE70).
T5 sequence (P0AE70 whole entry): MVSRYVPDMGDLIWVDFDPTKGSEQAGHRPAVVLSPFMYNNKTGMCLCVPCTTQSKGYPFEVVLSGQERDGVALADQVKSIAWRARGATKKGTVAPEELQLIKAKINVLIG
Kind of assay: MazF toxin RNase activators, dose response, biochemical, fluorescence, single-stranded RNA substrate, uHTS hits (AID 588481). The format is functional.

Assay [13] addresses T5, Endoribonuclease toxin MazF. As to the kind of experiment: fluorescent RNA oligo signal without MazF, dose response, counter-screen for MazEF activator project, biochemical, fluorescence, single-stranded RNase substrate (AID 588502). Format: functional.
Assay [14] concerns the target T6, Replicative DNA helicase DnaB (Mycobacterium tuberculosis, UniProt P9WMR3).
T6 sequence (P9WMR3 whole entry): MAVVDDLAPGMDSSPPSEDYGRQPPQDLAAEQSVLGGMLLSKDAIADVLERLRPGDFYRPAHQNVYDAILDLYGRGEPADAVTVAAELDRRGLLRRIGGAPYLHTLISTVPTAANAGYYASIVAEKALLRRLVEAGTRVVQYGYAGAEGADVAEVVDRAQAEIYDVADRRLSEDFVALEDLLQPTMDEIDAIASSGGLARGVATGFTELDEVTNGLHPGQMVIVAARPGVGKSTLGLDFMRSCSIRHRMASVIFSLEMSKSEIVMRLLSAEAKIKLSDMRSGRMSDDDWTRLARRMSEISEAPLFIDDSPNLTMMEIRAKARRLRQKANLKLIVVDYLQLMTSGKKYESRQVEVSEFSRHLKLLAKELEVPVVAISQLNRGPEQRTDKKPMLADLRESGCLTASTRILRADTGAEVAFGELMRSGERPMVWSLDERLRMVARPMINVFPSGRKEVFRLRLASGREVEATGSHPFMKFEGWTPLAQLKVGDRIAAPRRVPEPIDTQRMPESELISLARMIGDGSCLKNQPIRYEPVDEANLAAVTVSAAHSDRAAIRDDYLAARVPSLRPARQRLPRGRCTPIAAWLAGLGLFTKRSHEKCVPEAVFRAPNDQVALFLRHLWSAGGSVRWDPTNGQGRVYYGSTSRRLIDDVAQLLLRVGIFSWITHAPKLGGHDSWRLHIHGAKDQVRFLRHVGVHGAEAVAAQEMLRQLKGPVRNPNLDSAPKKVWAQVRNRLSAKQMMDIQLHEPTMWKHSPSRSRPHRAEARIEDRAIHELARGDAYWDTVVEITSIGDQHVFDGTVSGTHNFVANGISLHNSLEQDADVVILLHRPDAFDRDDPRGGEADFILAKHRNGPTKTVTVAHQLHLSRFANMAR
As to the kind of experiment: DnaB intein splicing inhibitors, dose response, biochemical, cell-free fluorescence (AID 449749). The format is functional.

For the next assay, the target named is T7, Protein RecA (Mycobacterium tuberculosis, UniProt P9WHJ3).
T7 sequence (P9WHJ3 whole entry): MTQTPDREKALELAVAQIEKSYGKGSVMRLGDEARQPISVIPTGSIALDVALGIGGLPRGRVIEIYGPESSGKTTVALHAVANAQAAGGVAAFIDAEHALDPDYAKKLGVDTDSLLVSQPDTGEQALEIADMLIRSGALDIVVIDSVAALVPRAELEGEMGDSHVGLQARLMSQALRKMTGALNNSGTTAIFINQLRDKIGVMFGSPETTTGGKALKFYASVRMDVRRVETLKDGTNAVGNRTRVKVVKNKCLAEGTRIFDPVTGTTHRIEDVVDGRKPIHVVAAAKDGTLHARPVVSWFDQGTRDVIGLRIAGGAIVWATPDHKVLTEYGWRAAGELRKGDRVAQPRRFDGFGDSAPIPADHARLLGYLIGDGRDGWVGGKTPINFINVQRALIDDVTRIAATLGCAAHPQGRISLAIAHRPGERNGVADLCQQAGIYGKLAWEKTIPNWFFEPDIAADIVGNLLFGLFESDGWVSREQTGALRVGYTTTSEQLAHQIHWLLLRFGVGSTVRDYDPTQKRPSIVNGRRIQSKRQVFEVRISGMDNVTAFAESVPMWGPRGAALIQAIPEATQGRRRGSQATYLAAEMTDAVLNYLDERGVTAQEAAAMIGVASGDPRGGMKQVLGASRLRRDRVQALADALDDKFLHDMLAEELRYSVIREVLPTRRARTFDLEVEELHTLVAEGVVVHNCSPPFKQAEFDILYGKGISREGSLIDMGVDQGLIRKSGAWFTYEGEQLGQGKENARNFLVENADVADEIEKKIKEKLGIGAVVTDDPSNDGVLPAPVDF
Kind of assay: Fluorescence Cell-Free Homogeneous Dose Retest to Identify Inhibitors of RecA-Intein Splicing Activity. [Related pubchem assays (depositor defined):AID2097, AID2223, AID489010, AID492950]. Format: functional.

A short description of assay [15]: NIH-3T3 fibroblast cytotoxicity, dose response, cytotoxicity control, cell-based, fluorescence, Alamar Blue, secondary assay (AID 2327).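 Note: NIH-3T3 mouse fibroblasts cultured with fluconazole at 8 µg/mL.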 The format is functional.
Assay [16] in a line: C. albicans growth with fluconazole, confirmation, fluorescence, retest (AID 2467). Format: functional, cell-based.

5-hydroxytryptamine receptor 5A, sequence (P47898 whole entry): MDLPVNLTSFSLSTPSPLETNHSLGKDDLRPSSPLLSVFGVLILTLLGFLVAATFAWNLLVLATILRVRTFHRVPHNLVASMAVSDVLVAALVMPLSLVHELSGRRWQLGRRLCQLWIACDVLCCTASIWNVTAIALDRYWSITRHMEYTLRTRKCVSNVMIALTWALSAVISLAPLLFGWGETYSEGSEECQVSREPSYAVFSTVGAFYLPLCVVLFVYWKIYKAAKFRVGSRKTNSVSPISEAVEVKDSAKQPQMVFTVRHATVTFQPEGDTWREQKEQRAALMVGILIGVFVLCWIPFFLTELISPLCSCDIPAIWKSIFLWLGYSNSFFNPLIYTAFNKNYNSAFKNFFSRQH
Mu-type opioid receptor, sequence (P35372 whole entry): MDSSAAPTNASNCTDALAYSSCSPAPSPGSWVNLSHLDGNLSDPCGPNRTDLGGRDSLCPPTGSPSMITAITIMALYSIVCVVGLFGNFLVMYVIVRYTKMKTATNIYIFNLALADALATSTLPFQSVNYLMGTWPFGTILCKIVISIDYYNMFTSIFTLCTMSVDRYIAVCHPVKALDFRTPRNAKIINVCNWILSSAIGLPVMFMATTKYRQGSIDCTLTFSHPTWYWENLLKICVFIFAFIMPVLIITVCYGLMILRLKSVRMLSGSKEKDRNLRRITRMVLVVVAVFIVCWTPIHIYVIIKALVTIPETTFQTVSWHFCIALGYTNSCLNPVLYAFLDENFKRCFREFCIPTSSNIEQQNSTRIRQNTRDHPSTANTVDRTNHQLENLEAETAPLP
Delta-type opioid receptor, sequence (P41143 whole entry): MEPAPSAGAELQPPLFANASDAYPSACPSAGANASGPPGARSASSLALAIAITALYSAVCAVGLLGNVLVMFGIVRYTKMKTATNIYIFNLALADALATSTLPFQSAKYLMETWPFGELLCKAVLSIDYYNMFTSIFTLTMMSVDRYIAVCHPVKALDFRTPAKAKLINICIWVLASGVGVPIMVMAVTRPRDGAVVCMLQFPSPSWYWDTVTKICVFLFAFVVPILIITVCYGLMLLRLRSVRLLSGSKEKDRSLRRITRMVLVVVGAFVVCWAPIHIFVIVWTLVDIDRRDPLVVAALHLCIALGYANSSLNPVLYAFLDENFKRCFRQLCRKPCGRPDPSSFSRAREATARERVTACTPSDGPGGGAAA

With `CC(C)OC(=O)c1nn2c(C(F)(F)F)cc(-c3ccco3)nc2c1Cl`, the AC50 with Escherichia coli was 43.9 µM (active).

As for `COc1ccc(C2c3ccc4ccccc4c3Oc3ncn(CCCN(C)C)c(=N)c32)cc1` (stereo not drawn), the EC50 in the assay on BJ [1] is 5.07 µM (inconclusive); with BJ [2] it was 7.71 µM (active); with BJ [3] it was 4.18 µM (active); in assay [4] it was 4.43 µM (active); in the assay with BJ [6], 2.86 µM (inconclusive). Also, in [5], the IC50 was > 20 µM (inactive). The values for the AC50 (in the assay on INS1; in assay [7]) were 7.32 µM (active) and 2.33 µM (active), respectively.

For the molecule `CCCN1C(=O)/C(=C\C=C2/C=CN(CC)c3ccccc32)SC1=S`, the CC50 with Vero was > 40 µM (active).

As to `C=CCNC(=O)c1ccccc1NC(=O)Nc1ccccc1`, in the assay with Escherichia coli, the half-maximal activity concentration (AC50) is 44.4 µM (active).

Turning to `O=C(Nc1ccc(F)c(Cl)c1)c1cccnc1`, the AC50 in the assay with Escherichia coli was 61.5 µM (active).

As to `O=S(=O)(NC1CC1)c1ccc(S(=O)(=O)N2CCCC3(CCCCC3)C2)cc1`, the EC50 (in assay [8]; at Mu-type opioid receptor; in [9]) was > 92.5 µM (inactive) in each case.

On to `COc1ccc(NC(=O)c2sc3nc(-c4cccnc4)ccc3c2N)cc1OC`, for which the EC50 was 115 µM (inconclusive) in assay [10], > 300 µM (inconclusive) in assay [11], > 99 µM (inactive) in [12] and 54.5 µM (inactive) in assay [13].

On to `CCSc1cc(C2C(C#N)=C(N)Oc3[nH]nc(C)c32)c(C)o1` (stereo not drawn), for which the EC50 is 25.5 µM (active) with BJ [1]; 17.7 µM (active) in the assay on BJ [2]; > 150 µM (not active) in the assay on BJ [3]; 14.7 µM (active) in assay [4]; 8.45 µM (active) in the assay with BJ [6]; 3.29 µM (active) on Protein RecA. Further, the AC50 in assay [14] was 10.3 µM (active).

On to `Cc1ccc(-c2nc3sc(C#N)c(N)n3c(=O)c2C#N)cc1`, for which the EC50 in assay [15] was > 160 µM (inactive); in assay [16], 1.72 µM (active); in assay [12], > 99 µM (inactive); in assay [13], > 99 µM (inactive).

On to `COc1ccc(-c2nc(CN3CCC(C(=O)NC4CCCc5ccccc54)CC3)c(C)o2)cc1OC` (stereo not drawn), for which the EC50 is > 92.4 µM (inactive) in assay [8], 20.8 µM (inactive) at Mu-type opioid receptor and > 92.4 µM (inactive) in assay [9].
